These results are taken from patent publication US20250320228A1, “PYRIDO[3,2-D]PYRIMIDINES AS HPK1 INHIBITORS” (Merck Patent GmbH, priority 2022, published 2025).

Experiment [1] addresses full-length human HPK1 (MAP4K1) (Homo sapiens (Human), UniProt Q92918). Put plainly: HPK1 kinase assay (biochemical, ADP-Glo). The settings on record: read-out: HPK1 enzymatic IC50. An excerpt:
HPK1 kinase assay (Biochemical assay).
A recombinant fusion protein consisting of full-length human HPK1 (MAP4K1) with an N-terminal Glutatione S-transferase (GST) tag was produced in insect cells Sf21 using the baculovirus expression system. GST-HPK1 protein was purified from cell lysates by glutathione Sepharose affinity chromatography. The assay is run in three continuous steps: 1) the HPK1 enzymatic kinase reaction, 2) an ATP depletion, and 3) the ADP detection, the steps 2 and 3 are performed with ADP-Glo™ Kinase Assay kit from Promega (V9101). Test compounds were prepared by 10-point serial dilution in dimethyl sulfoxide (DMSO) and 100 nL of each dilution was spotted onto a 384-well Optiplate (Perkin Elmer and Cat #6007299) by Labcyte Echo. 5 μL kinase reaction buffer (0.02% Brij-35, 2 mM DTT, 50 mM HEPES pH 7.5, MgCl2 10 mM, BSA 0.01% and β-glycerophosphate 12.5 mM) containing HPK1 (3.2 nM) enzyme was transferred to each well and incubated for 15 minutes at room temperature at 60% humidity. The enzymatic reaction was started by adding 5 μl of Start-Mix (10 μM ATP and 3.235 μM MBP). After 120 minutes, the reaction was stopped by adding 5 μL of ADP-Glo reagent (Promega, V9101) and incubating for 40 min. in the dark at 23° C. To determine the level of ADP, 10 μl ADP-Glo Detection solution was added and incubated for 1 hour at 23° C. in the dark. The plate was transferred to a Perkin Elmer EnVision (2104 Multilabel Reader) for luminescence detection and percent inhibition activity and IC50 value were determined using Genedata Screener.
In general terms: In ADP-Glo the light output rises with the ADP produced.

In experiment [2] the test system is HPK1 pSLP76 (Ser376). Put plainly: Cellular assay phospho-SLP-76 (Ser376). The conditions noted are these: read-out: HPK1 pSLP76 IC50. The format is cell-based, human. On the procedure: Cellular Assay—Phospho-SLP-76 (Ser376).
Inhibition of HPK1 enzymatic activity in cells was determined by detection of SLP76 phosphorylation at Ser376 residue in lysate from Jurkat (human) and EL-4 (mouse) cells. Jurkat and EL-4 cells express both HPK1 and SLP76 naturally. All cells were cultured in RPMI 1640 media containing 10% heat inactivated fetal bovine serum (FBS) and 1× Penicillin-Streptomycin. In either Jurkat or El-4 assay, cells were pre-incubated with test compounds prior to T cell stimulation by respective αCD3/αCD28 Dynabeads™. For detection, plates were read on the Envision and percent inhibition and IC50 were determined by Smart fit in Genedata Analyzer.
For Jurkat cells: 35 μL cell suspension were dispensed at a density of 30,000 cells/well in 384-well plates containing HBSS (Gibco, 14025076)+0.1% BSA). 10-point logarithmic serial dilution of test compounds in DMSO were prepared by a Hamilton automated liquid handling robot and 35 nL was transferred into each well by an Echo liquid handler. After 60 min. pre-incubation, the cells were stimulated by adding 5 μL human T activator αCD3/αCD28 Dynabeads™ (Gibco, 11132D) at 1.2×107 beads/ml for 15 minutes at 37° C. Detection of Ser376 phosphorylation status was accomplished by first adding 10 μL of 5× AlphaLISA lysis buffer (Perkin Elmer, ALSU-PSLP-A500) to each well of the cell plate using a Multidrop Combi (5840300), followed by 20 minutes shaking. 10 μL cell lysate from each treatment were then transferred to a white 384-well plate (Corning 3572) and incubated with AlphaLISA acceptor beads for one hour (AlphaLISA SureFire Ultra p-SLP76 (Ser376), Perkin Elmer, ALSU-PSLP-A500), and donor beads for additional 2 hours at room temperature in the dark. […]

The mark [3] stands for this setting: GST-HPK1 3.2 nM, 10 μM ATP, MBP substrate, ADP-Glo.
Setting [4] is: SLP76 Ser376 phosphorylation after αCD3/αCD28 stimulation, Jurkat (human) or EL-4 (mouse) cells, table does not say which.

Read-outs that look alike come from different tables or passages of the source.

full-length human HPK1 (MAP4K1), sequence (Q92918 whole entry): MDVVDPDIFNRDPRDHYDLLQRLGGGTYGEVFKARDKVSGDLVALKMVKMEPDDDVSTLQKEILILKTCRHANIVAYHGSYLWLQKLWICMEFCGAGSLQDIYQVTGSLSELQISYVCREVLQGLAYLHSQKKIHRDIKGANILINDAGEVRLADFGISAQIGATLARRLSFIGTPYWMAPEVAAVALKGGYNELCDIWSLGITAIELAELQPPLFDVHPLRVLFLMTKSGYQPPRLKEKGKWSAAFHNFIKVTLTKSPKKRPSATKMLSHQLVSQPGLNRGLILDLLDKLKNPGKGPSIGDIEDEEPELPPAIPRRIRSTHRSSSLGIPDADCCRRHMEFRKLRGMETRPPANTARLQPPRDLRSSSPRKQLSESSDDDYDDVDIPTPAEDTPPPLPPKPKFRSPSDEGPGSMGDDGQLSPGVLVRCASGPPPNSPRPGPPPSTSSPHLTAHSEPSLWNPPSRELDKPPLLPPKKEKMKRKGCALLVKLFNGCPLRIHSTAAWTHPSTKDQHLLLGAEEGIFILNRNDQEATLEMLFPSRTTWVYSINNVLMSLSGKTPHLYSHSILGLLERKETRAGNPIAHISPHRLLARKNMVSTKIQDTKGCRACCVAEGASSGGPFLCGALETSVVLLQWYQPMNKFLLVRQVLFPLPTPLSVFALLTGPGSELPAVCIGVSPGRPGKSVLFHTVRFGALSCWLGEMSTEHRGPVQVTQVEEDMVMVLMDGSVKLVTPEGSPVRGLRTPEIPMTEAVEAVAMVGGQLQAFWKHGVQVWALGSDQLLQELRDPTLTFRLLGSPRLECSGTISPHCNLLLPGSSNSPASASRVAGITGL

One may read the IC50 as the concentration at which inhibition is half-maximal. As to `NC(=O)c1cc(-c2ccc(OCC3(O)CCCC3)cc2)nc2c(N[C@H]3CCCNC3)ncnc12` [Example 41, (S)-6-(4-((1-hydroxycyclopentyl)methoxy)phenyl)-4-(piperidin-3-ylamino)pyrido[3,2-d]pyrimidine-8-carboxamide], the IC50 in experiment [1] (setting [3]) is < 100 nM; in experiment [2] (setting [4]), < 500 nM.

Turning to `Cc1nn(C)cc1-c1cc(C(N)=O)c2ncnc(N[C@H]3CCCNC3)c2n1` [Example 79, 6-(1,3-dimethyl-1H-pyrazol-4-yl)-4-{[(3S)-piperidin-3-yl]amino}pyrido[3,2-d]pyrimidine-8-carboxamide], the results for the IC50 in experiment [1] (setting [3]) and in experiment [2] (setting [4]) were < 100 nM and > 1000 nM, respectively. For `NC(=O)c1cc(-c2cnn(C3CCOCC3)c2)nc2c(N[C@@H]3CNC[C@@H](F)C3)ncnc12` [Example 4, 4-(((3S,5S)-5-fluoropiperidin-3-yl)amino)-6-(1-(tetrahydro-2H-pyran-4-yl)-1H-pyrazol-4-yl)pyrido[3,2-d]pyrimidine-8-carboxamide] the same measures were < 100 nM and 500 to 1000 nM. `NC(=O)c1cc(C2=CCC(N3CCOCC3)CC2)nc2c(N[C@H]3CCCNC3)ncnc12` (stereo partly drawn) [Example 17, 6-(4-morpholinocyclohex-1-en-1-yl)-4-(((S)-piperidin-3-yl)amino)pyrido[3,2-d]pyrimidine-8-carboxamide]: the IC50 in experiment [1] (setting [3]) is < 100 nM; in experiment [2] (setting [4]), 500 to 1000 nM. Take `NC(=O)c1cc(-c2ccc(O[C@H]3CN4CCC3CC4)cc2)nc2c(N[C@H]3CCCNC3)ncnc12` [Example 50, 4-(((S)-piperidin-3-yl)amino)-6-(4-(((R)-quinuclidin-3-yl)oxy)phenyl)pyrido[3,2-d]pyrimidine-8-carboxamide]: the IC50 in experiment [1] was < 100 nM; in experiment [2] (Homo sapiens, Jurkat) it was > 1000 nM.

As to `NC(=O)c1cc(-c2ccc(CN3C4CCC3COC4)cc2)nc2c(N[C@H]3CCCNC3)ncnc12` [Example 66, 6-(4-[3-oxa-8-azabicyclo [3.2.1]octan-8-ylmethyl]phenyl)-4-[(3S)-piperidin-3-ylamino]pyrido[3,2-d]pyrimidine-8-carboxamide], the IC50 in experiment [1] (setting [3]) is < 100 nM; in experiment [2] (setting [4]), < 500 nM. As to `Cc1nn(C)cc1-c1cc(C(N)=O)c2ncnc(N[C@@H]3CNC[C@@H](F)C3)c2n1` [Example 3, 6-(1,3-dimethyl-1H-pyrazol-4-yl)-4-(((3S,5S)-5-fluoropiperidin-3-yl)amino)pyrido[3,2-d]pyrimidine-8-carboxamide], the figures for the IC50 in experiment [1] (setting [3]) and in experiment [2] (setting [4]) were < 100 nM and < 500 nM, respectively. For `CC(O)(C#N)COc1ccc(-c2cc(C(N)=O)c3ncnc(N[C@H]4CCCNC4)c3n2)cc1` (stereo partly drawn) [Example 40, 6-(4-(2-cyano-2-hydroxypropoxy)phenyl)-4-(((S)-piperidin-3-yl)amino)pyrido[3,2-d]pyrimidine-8-carboxamide] the same measures were < 100 nM and > 1000 nM. Take `NC(=O)c1cc(-c2ccc(CC3(F)CCOCC3)cc2)nc2c(N[C@H]3CCCNC3)ncnc12` [Example 44, (S)-6-(4-((4-fluorotetrahydro-2H-pyran-4-yl)methyl)phenyl)-4-(piperidin-3-ylamino)pyrido[3,2-d]pyrimidine-8-carboxamide]: the IC50 was < 100 nM in experiment [1] (setting [3]) and < 500 nM in experiment [2] (setting [4]). In the case of `CN1CCc2cc(-c3cc(C(N)=O)c4ncnc(N[C@H]5CCCNC5)c4n3)nn2CC1=O` [Example 45, (S)-6-(6-methyl-7-oxo-5,6,7,8-tetrahydro-4H-pyrazolo[1,5-d][1,4]diazepin-2-yl)-4-(piperidin-3-ylamino)pyrido[3,2-d]pyrimidine-8-carboxamide], the IC50 in experiment [2] (setting [4]) is > 1000 nM. For the compound `NC(=O)c1cc(-c2ccc(CN3CCOC(F)(F)C3)cc2)nc2c(N[C@H]3CCCNC3)ncnc12` [Example 70, 6-[4-[(2,2-difluoromorpholin-4-yl)methyl]phenyl]-4-[(3S)-piperidin-3-ylamino]pyrido[3,2-d]pyrimidine-8-carboxamide], the IC50 in experiment [1] (setting [3]) was < 100 nM; in experiment [2] (setting [4]), 500 to 1000 nM.

Consider `NC(=O)c1cc(-c2cc(F)c(OCC3(O)CCC3)c(F)c2)nc2c(N[C@@H]3CNC[C@@H](F)C3)ncnc12` [Example 33, 6-(3,5-difluoro-4-((1-hydroxycyclobutyl)methoxy)phenyl)-4-(((3S,5S)-5-fluoropiperidin-3-yl)amino)pyrido[3,2-d]pyrimidine-8-carboxamide], for which the IC50 in experiment [1] (setting [3]) is < 100 nM; in experiment [2] (setting [4]) it was < 500 nM. Turning to `NC(=O)c1cc(-c2ccc(C3(O)COC3)cc2)nc2c(N[C@H]3CCCNC3)ncnc12` [Example 82, 6-[4-(3-hydroxyoxetan-3-yl)phenyl]-4-{[(3S)-piperidin-3-yl]amino}pyrido[3,2-d]pyrimidine-8-carboxamide], the IC50 in experiment [1] (setting [3]) was < 100 nM; in experiment [2] (setting [4]) it was 500 to 1000 nM. For `NC(=O)c1cc(C2=CCN(C(=O)C3CC3)CC2)nc2c(N[C@H]3CCCNC3)ncnc12` [Example 75, 6-(1-cyclopropanecarbonyl-1,2,3,6-tetrahydropyridin-4-yl)-4-{[(3S)-piperidin-3-yl]amino}pyrido[3,2-d]pyrimidine-8-carboxamide] the same measures were < 100 nM and 500 to 1000 nM. For `NC(=O)c1cc(-c2ccc(CN3C4COCC3COC4)cc2)nc2c(N[C@H]3CCCNC3)ncnc12` [Example 64, 6-(4-[3,7-dioxa-9-azabicyclo [3.3.1]nonan-9-ylmethyl]phenyl)-4-[(3S)-piperidin-3-ylamino]pyrido[3,2-d]pyrimidine-8-carboxamide] the same measures were < 100 nM and < 500 nM. For `NC(=O)c1cc(-c2ccc(F)cc2)nc2c(N[C@H]3CCCNC3)ncnc12` [Example 76, 6-(4-fluorophenyl)-4-{[(3S)-piperidin-3-yl]amino}pyrido[3,2-d]pyrimidine-8-carboxamide] the same measures were < 100 nM and < 500 nM.

Turning to `NC(=O)c1cc(-c2cc(F)c(OCC3(O)CCOCC3)c(F)c2)nc2c(N[C@H]3CCCNC3)ncnc12` [Example 43, (S)-6-(3,5-difluoro-4-((4-hydroxytetrahydro-2H-pyran-4-yl)methoxy)phenyl)-4-(piperidin-3-ylamino)pyrido[3,2-d]pyrimidine-8-carboxamide], the IC50 in experiment [1] (setting [3]) was < 100 nM; in experiment [2] (setting [4]), < 500 nM. Consider `NC(=O)c1cc(-c2ccc(CN3CCOC[C@H]3C(F)(F)F)cc2)nc2c(N[C@H]3CCCNC3)ncnc12` [Example 15], for which, in experiment [2] (setting [4]), the 50% inhibitory concentration (IC50) was < 500 nM. As for `NC(=O)c1cc(-c2ccc(CN3CCOCC3)cc2)nc2c(NC34CNCC3C4)ncnc12` (stereo not drawn) [Example 20], the IC50 in experiment [2] (setting [4]) is > 1000 nM. For `NC(=O)c1cc(-c2cc(F)c(OCC3(O)CCC3)c(F)c2)nc2c(N[C@H]3CCCNC3)ncnc12` [Example 39, (S)-6-(3,5-difluoro-4-((1-hydroxycyclobutyl)methoxy)phenyl)-4-(piperidin-3-ylamino)pyrido[3,2-d]pyrimidine-8-carboxamide], in experiment [2] (setting [4]), the IC50 was < 500 nM.

With `N#C[C@H]1COCCN1Cc1ccc(-c2cc(C(N)=O)c3ncnc(N[C@H]4CCCNC4)c3n2)cc1` [Example 14], in experiment [2] (setting [4]), the IC50 is > 1000 nM. For the compound `NC(=O)c1cc(C=C2CCOCC2)nc2c(N[C@H]3CCCNC3)ncnc12` [Example 85, 6-[(oxan-4-ylidene)methyl]-4-{[(3S)-piperidin-3-yl]amino}pyrido[3,2-d]pyrimidine-8-carboxamide], the IC50 in experiment [1] (setting [3]) is > 1000 nM. On the same count and under the same terms, for `NC(=O)c1cc(C=C2CCOC2)nc2c(N[C@H]3CCCNC3)ncnc12` (stereo in doubt) [Example 80, 6-{[(3Z)-oxolan-3-ylidene]methyl}-4-{[(3S)-piperidin-3-yl]amino}pyrido[3,2-d]pyrimidine-8-carboxamide] the value was 100 to 1000 nM.
